Test results: patent US11534441B2, “MAP4K1 inhibitors” (Blueprint Medicines Corporation, priority 2020, dated 2022)

Target: MAP4K1 (HPK1) (Homo sapiens (Human), UniProt Q92918)
Assay: MAP4K1 (HPK1) biochemical enzymatic activity, electrophoretic mobility shift (EZReader 2), ATP at APPKM (26 μM)
Excerpt: MAP4K1 (HPK1) and relevant off-target enzymatic activity was monitored using the Perkin Elmer electrophoretic mobility shift technology platform—the EZReader 2. […] Within the linear, steady-state phase of the kinase enzymatic reaction, the mixed pool of phosphorylated (product) and non-phosphorylated (substrate) peptides was passed through the microfluidic system of the PerkinElmer EZ Reader 2, under an applied electric potential difference. The presence of the phosphate group on the product peptide provided a difference in mass and charge between that of the substrate peptide, resulting in a separation of the substrate and product pools in the sample (Perrin et al. 2010). As the product and substrate peptide mixture passes the lasers within the instrument, these pools are detected (λex=488 nm, λent=568 nm) and resolved as separate peaks. The ratio between these peaks reflects the activity of the compound at that concentration, in that well, under those conditions.
Inhibitors were dissolved in 100% DMSO at a stock concentration of 10 mM. A 100×, 10-point, 4-fold serial dilution of each inhibitor was created in 100% DMSO either manually or on a Hamilton STAR liquid handler, starting at a relevant concentration, usually 1 mM. A volume of 0.130 μL of each concentration was transferred to the relevant wells of a 384-well plate (Greiner 781 201) in duplicate using a TTPLabtech Mosquito nano-litre dispenser. Using a Multidrop Combi, the remaining constituents of the kinase reaction were added to the 130 nL of dosed compound as follows (see table below for final reaction details):
Enzyme activity assays at the ^APPKM for ATP or 1 mM ATP: In each well of a 384-well plate, 0.1-15 nM of untreated enzyme was incubated in a total of 13 μL of buffer (100 mM HEPES pH 7.5, 0.015% Brij 35, 10 mM MgCl2, 1 mM DTT) with 1.5 μM fluorescent peptid and 20-1000 μM ATP, at 25° C., for 60-180 minutes in the presence or absence of a dosed concentration series of compound (1% DMSO final concentration). The kinase reactions were stopped by the addition of 70 μl of Stop buffer (100 mM HEPES pH 7.5, 0.015% Brij 35, 35 mM EDTA and 0.2% of Coating Reagent 3 (Caliper Lifesciences)). The plates were read on a Caliper EZReader 2 as described above.

Chain of MAP4K1 (HPK1) (Q92918 whole entry): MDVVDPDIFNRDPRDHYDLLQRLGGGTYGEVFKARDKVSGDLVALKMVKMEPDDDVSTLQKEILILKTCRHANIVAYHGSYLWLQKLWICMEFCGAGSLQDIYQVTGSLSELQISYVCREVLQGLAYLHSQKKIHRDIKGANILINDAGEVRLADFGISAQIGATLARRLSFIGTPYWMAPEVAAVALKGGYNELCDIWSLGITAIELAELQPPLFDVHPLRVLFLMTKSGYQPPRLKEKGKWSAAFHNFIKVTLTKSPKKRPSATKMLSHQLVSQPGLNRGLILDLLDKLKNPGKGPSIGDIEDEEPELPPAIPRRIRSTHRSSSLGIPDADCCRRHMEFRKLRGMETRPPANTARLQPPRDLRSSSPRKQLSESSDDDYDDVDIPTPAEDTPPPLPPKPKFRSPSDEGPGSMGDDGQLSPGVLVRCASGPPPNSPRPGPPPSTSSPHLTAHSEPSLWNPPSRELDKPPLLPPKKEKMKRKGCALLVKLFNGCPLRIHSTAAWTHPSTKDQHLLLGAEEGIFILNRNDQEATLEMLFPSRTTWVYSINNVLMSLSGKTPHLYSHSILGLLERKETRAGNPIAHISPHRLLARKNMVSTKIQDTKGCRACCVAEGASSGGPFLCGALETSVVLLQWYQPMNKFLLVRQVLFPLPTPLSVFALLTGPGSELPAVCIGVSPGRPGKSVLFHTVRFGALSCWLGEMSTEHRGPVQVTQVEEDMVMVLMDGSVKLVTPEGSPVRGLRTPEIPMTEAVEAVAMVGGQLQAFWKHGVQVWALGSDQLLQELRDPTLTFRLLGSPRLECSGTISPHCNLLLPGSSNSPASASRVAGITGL

SMILES | IC50 (class designation) | IC50 (numeric value)
C[C@@H]1OC(=O)c2ccc(Nc3cc4c([C@@](C)(N)C5CC5)cnc(O[C@H]5C[C@H](O)C5)c4cn3)nc2[C@H]1C (relative stereo) [Compound 193, (7S,8R)-2-((5-((R)-1-Amino-1-cyclopropylethyl)-8-((trans)-3-hydroxycyclobutoxy)-2,7-naphthyridin-3-yl)amino)-7,8-dimethyl-7,8-dihydro-5H-pyrano[4,3-b]pyridin-5-one and (7S,8R)-2-((5-((S)-1-amino-1-cyclopropylethyl)-8-((trans)-3-hydroxycyclobutoxy)-2,7-naphthyridin-3-yl)amino)-7,8-dimethyl-7,8-dihydro-5H-pyrano[4,3-b]pyridin-5-one] | < 0.3 nM | 0.1 nM
CC[C@H](F)c1nc(Nc2cc3c(C(C)(C)N)cnc(OC)c3cn2)cnc1C#N (single isomer, unassigned) [Compound 30] | 1.1 to 10 nM | 3.57 nM
CC[C@@H](F)c1nc(Nc2cc3c(C(C)(C)N)cnc(OC)c3cn2)cnc1C#N (single isomer, unassigned) [Compound 31] | 1.1 to 10 nM | 5.88 nM
CC[C@](C)(N)c1cnc(OC)c2cnc(Nc3ccc4c(n3)CC(C)(C)OC4=O)cc12 (single isomer, unassigned) [Compound 62] | 0.31 to 1 nM | 0.55 nM
C[C@](N)(c1cnc(OC2CC2)c2cnc(Nc3ccc4c(n3)CCOC4=O)cc12)C1CC1 (single isomer, unassigned) [Compound 108] |  | 0.98 nM
COc1ncc([C@H](C)N)c2cc(Nc3ccnc(C(C)(C)F)n3)ncc12 (stereo in doubt) [Compound 1, 5-(1-Aminoethyl)-N-(2-(2-fluoropropan-2-yl)pyrimidin-4-yl)-8-methoxy-2,7-naphthyridin-3-amine] | > 10 nM | 21.4 nM
COc1ncc(C(C)(C)N)c2cc(Nc3ccnc(OC(C)C)n3)ncc12 [Compound 4] | 0.31 to 1 nM | 0.42 nM
CNc1ncc(C(C)(C)N)c2cc(Nc3ccnc(C(C)(C)F)n3)ncc12 [Compound 6, 4-(2-Aminopropan-2-yl)-N6-(2-(2-fluoropropan-2-yl)pyrimidin-4-yl)-N1-methyl-2,7-naphthyridine-1,6-diamine] | 1.1 to 10 nM | 3.31 nM
CNc1ncc(C(C)(C)N)c2cc(Nc3cnc(C#N)c(C(C)C)n3)ncc12 [Compound 8, 5-((5-(2-Aminopropan-2-yl)-8-(methylamino)-2,7-naphthyridin-3-yl)amino)-3-isopropylpyrazine-2-carbonitrile] | > 10 nM | 11.1 nM
COc1ncc(C(C)(C)N)c2cc(Nc3cnc(C#N)c(C(C)C)n3)ncc12 [Compound 10] | 1.1 to 10 nM | 2.73 nM
CCOc1ncc(C(C)(C)N)c2cc(Nc3ccnc(C(C)(C)F)n3)ncc12 [Compound 16] | 1.1 to 10 nM | 2.5 nM
CNC(C)(C)c1cnc(OC)c2cnc(Nc3ccnc(C(C)(C)F)n3)cc12 [Compound 17, N-(2-(2-Fluoropropan-2-yl)pyrimidin-4-yl)-8-methoxy-5-(2-(methylamino)propan-2-yl)-2,7-naphthyridin-3-amine] | 1.1 to 10 nM | 4.02 nM
CC[C@@H](C)c1nc(Nc2cc3c(C(C)(C)N)cnc(OC)c3cn2)ccc1C#N [Compound 18] | 0.31 to 1 nM | 0.4 nM
COc1ncc(C(C)(C)N)c2cc(Nc3ccnc(N4CCC[C@@H]4C)n3)ncc12 [Compound 27] | < 0.3 nM | 0.3 nM
COc1ncc(C(C)(C)N)c2cc(Nc3cnc(C#N)c(C(C)(C)F)n3)ncc12 [Compound 29] | 1.1 to 10 nM | 3.98 nM
COc1ncc(C(C)(C)N)c2cc(Nc3cnc4c(n3)CC(C)(C)OC4=O)ncc12 [Compound 47] | > 10 nM | 13.6 nM
COc1ncc(C(C)(C)N)c2cc(Nc3cnc(C#N)c(N4CCC[C@@H]4C)n3)ncc12 [Compound 49] | 0.31 to 1 nM | 1.01 nM
COc1ncc(C2CCCN2)c2cc(Nc3ccc4c(n3)CC(C)(C)OC4=O)ncc12 (stereo not shown) [Compound 50, 2-((8-Methoxy-5-(pyrrolidin-2-yl)-2,7-naphthyridin-3-yl)amino)-7,7-dimethyl-7,8-dihydro-5H-pyrano[4,3-b]pyridin-5-one] | > 10 nM | 52.6 nM
COc1ncc(C(C)(C)N)c2cc(Nc3ccc4c(n3)[C@H]3CCC[C@H]3OC4=O)ncc12 [Compound 51] | < 0.3 nM | 0.26 nM
COc1ncc(C(C)(C)N)c2cc(Nc3cnc(C#N)c(C(C)C(F)(F)F)n3)ncc12 (stereo not shown) [Compound 63] | 1.1 to 10 nM | 6.46 nM
C[C@H]1OC(=O)c2ccc(Nc3cc4c(C(C)(C)N)cnc(OC5CC5)c4cn3)nc2[C@@H]1C [Compound 65] | 0.31 to 1 nM | 0.56 nM
CC[C@@](C)(N)c1cnc(OC2(C)CC2)c2cnc(Nc3ccc4c(n3)[C@@H](C)[C@H](C)OC4=O)cc12 [Compound 84] | 1.1 to 10 nM | 1.32 nM
CC[C@@](C)(N)c1cnc(OC2(C)CC2)c2cnc(Nc3ccc4c(n3)[C@@H](C)C(C)(C)OC4=O)cc12 [Compound 86] | 1.1 to 10 nM | 2.03 nM

The next lines start with the values.

IC50 (class designation) | IC50 (numeric value) | SMILES
1.1 to 10 nM | 2.25 nM | C[C@@H]1OC(=O)c2ccc(Nc3cc4c(C(C)(N)CO)cnc(OC5CC5)c4cn3)nc2[C@H]1C (single isomer, unassigned) [Compound 139, (7S,8R)-2-((5-((R)-2-Amino-1-hydroxypropan-2-yl)-8-cyclopropoxy-2,7-naphthyridin-3-yl)amino)-7,8-dimethyl-7,8-dihydro-5H-pyrano[4,3-b]pyridin-5-one or (7S,8R)-2-((5-((S)-2-amino-1-hydroxypropan-2-yl)-8-cyclopropoxy-2,7-naphthyridin-3-yl)amino)-7,8-dimethyl-7,8-dihydro-5H-pyrano[4,3-b]pyridin-5-one]
> 10 nM |  | C[C@@H]1OC(=O)c2ccc(Nc3cc4c([C@](C)(N)CO)cnc(OC5CC5)c4cn3)nc2[C@H]1C (single isomer, unassigned) [Compound 140, (7S,8R)-2-((5-((R)-2-Amino-1-hydroxypropan-2-yl)-8-cyclopropoxy-2,7-naphthyridin-3-yl)amino)-7,8-dimethyl-7,8-dihydro-5H-pyrano[4,3-b]pyridin-5-one or (7S,8R)-2-((5-((S)-2-amino-1-hydroxypropan-2-yl)-8-cyclopropoxy-2,7-naphthyridin-3-yl)amino)-7,8-dimethyl-7,8-dihydro-5H-pyrano[4,3-b]pyridin-5-one]
 | 0.11 nM | CC1(C)Cc2nc(Nc3cc4c([C@](C)(N)C5CC5)cnc(OC5CC5)c4cn3)ccc2C(=O)N1 (single isomer, unassigned) [Compound 148]
 | 2.61 nM | CC1(C)Cc2nc(Nc3cc4c([C@@](C)(N)C5CC5)cnc(OC5CC5)c4cn3)ccc2C(=O)O1 (single isomer, unassigned) [Compound 153]
1.1 to 10 nM | 7.35 nM | C[C@H](Oc1ncc(C(C)(C)N)c2cc(Nc3ccc4c(n3)CC(C)(C)OC4=O)ncc12)C(F)F (single isomer, unassigned) [Compound 164]
1.1 to 10 nM | 1.26 nM | C[C@@H](Oc1ncc(C(C)(C)N)c2cc(Nc3ccc4c(n3)CC(C)(C)OC4=O)ncc12)C(F)F (single isomer, unassigned) [Compound 165]
1.1 to 10 nM | 1.72 nM | CC[C@](C)(N)c1cnc(OCC(F)(F)F)c2cnc(Nc3ccc4c(n3)C(C)(C)OC4=O)cc12 (single isomer, unassigned) [Compound 173]
> 10 nM | 35.1 nM | CC[C@@](C)(N)c1cnc(OCC(F)(F)F)c2cnc(Nc3ccc4c(n3)C(C)(C)OC4=O)cc12 (single isomer, unassigned) [Compound 175]
1.1 to 10 nM | 2.12 nM | C[C@@H](Oc1ncc(C(C)(C)N)c2cc(Nc3ccc4c(n3)CC(C)(C)OC4=O)ncc12)C(F)(F)F (single isomer, unassigned) [Compound 179]
> 10 nM | 15.4 nM | C[C@H](Oc1ncc(C(C)(C)N)c2cc(Nc3ccc4c(n3)CC(C)(C)OC4=O)ncc12)C(F)(F)F (single isomer, unassigned) [Compound 180]
< 0.3 nM | 0.22 nM | CC[C@@H](N)c1ccc(OC)c2cnc(Nc3ccc4c(n3)C3(CC3)C(C)(C)OC4=O)cc12 (single isomer, unassigned) [Compound 207, (S)-2′-((5-(1-Aminopropyl)-8-methoxyisoquinolin-3-yl)amino)-7′,7′-dimethyl-5′H,7′H-spiro[cyclopropane-1,8′-pyrano[4,3-b]pyridin]-5′-one or (R)-2′-((5-(1-aminopropyl)-8-methoxyisoquinolin-3-yl)amino)-7′,7′-dimethyl-5′H,7′H-spiro[cyclopropane-1,8′-pyrano[4,3-b]pyridin]-5′-one]
